# Measurements published in patent publication US20060094059A1, “Methods for identifying new drug leads and new therapeutic uses for known drugs” (Odyssey Thera, Inc., priority 2004, published 2006).
# Key:
# [1] = test system: colon adenocarcinoma (LoVo) cells; experiment: MTT proliferation assay, colon; type: cell-based, Human; details: Homo sapiens, Tumor Cell Colon (LoVo), 120 hours, read-out: Anti-proliferative IC-50
# Protocol: (§1) Cells were maintained in various media as follows: A549, LoVo and PC-3 (Ham's F12K medium with 2 mM L-glutamine and 1.5 g/L sodium bicarbonate), MIA PaCa-2 (Dulbecco's modified Eagle's medium with 4 mM L-glutamine and 4.5 g/L glucose), U87-MG (MEM+Earle's BSS). Medium for each cell line was supplemented with 10% FBS and […] Penecillin/Streptomycin. All cells were grown in incubators set at 37° C., 5% CO2. Thiazolyl Blue Tetrazolium Bromide (MTT) based proliferation assays were performed to assess the anti-proliferative activities of the compounds on these cells. Cells were seeded in 96 well plates at a density of 750 cells/well 24 hours prior to compound treatment. The cells were incubated with varying concentrations of compounds for 120 hours. […] Drug treatment was performed in 5 replicate wells. Background absorbance was established by wells containing medium but no cells. Vehicle (DMSO) only was used as control. MTT (Sigma-Aldrich, St. Louis, Mo.) was added to each well at a final concentration of 0.5 mg/ml. Following a 2 hour incubation at 37° C., medium in the wells was replaced with 0.15 ml DMSO. The plates were agitated for 15 min using a microtiter plate shaker.
# [2] = test system: phospho-ERK (MAPK) in the presence of VEGF; experiment: Immunofluorescence assay phospho-ERK + VEGF; type: cell-based, human; details: FIG. 3G, compared with the vehicle alone
# Protocol: Immunofluorescence was performed on drug-treated cells to assess the post-translational modification status of proteins involved in the pathways of interest. We constructed assays designed to measure the phosphorylation status of key signaling proteins in the absence and presence of a growth factor stimulus. A drug capable of blocking or inhibiting the pathway leading to the signaling protein would in principle cause a decrease in the phosphorylation of that signaling protein in response to the selected growth factor. Such a change in phosphorylation status could be measured by a decrease in fluorescence in the presence of the drug. […]
# HEK293T cells were seeded at a density of 7,500/well in poly-D-lys coated, blackwalled 96 well plate (Greiner). […] Phosphorylated ERK was detected by incubating the fixed cells with rabbit phospho-ERK (T202/Y204)-specific antibodies (Cell Signaling Technologies) followed by Alexa488 conjugated goat anti-rabbit antibody (Molecular Probes). […] Fluorescence images were acquired on a Discovery-1 imaging station (Molecular Devices) as described above.
# Background fluorescence due to nonspecific binding by the secondary antibody was established with the use of cells that were incubated with BSA/PBS and without primary antibodies. […]
# [3] = test system: pancreatic carcinoma (MIA PaCa-2) cells; experiment: MTT proliferation assay, pancreatic; type: cell-based, Human; details: Homo sapiens, Tumor Cell Pancreatic (MIA PaCa-2), 120 hours, read-out: Anti-proliferative IC-50
# Protocol: as §1
compound,measurement,setting,value
O=C(Nc1ccc([N+](=O)[O-])cc1Cl)c1cc(Cl)ccc1O [Niclosamide],IC50,[1],450 nM
same,level of phospho-ERK (intensity of the fluorescence),[2],decrease in the level of phospho-ERK
same,IC50,[3],590 nM
